{"source": "ChEMBL document CHEMBL4376905", "about": "“Selective Estrogen Receptor Degraders for the Potential Treatment of Cancer” (ACS Med Chem Lett, 2020)", "key": {"Estrogen receptor": {"biological_target": "T1, Estrogen receptor (Homo sapiens, UniProt P03372)", "T1 sequence (P03372 whole entry)": "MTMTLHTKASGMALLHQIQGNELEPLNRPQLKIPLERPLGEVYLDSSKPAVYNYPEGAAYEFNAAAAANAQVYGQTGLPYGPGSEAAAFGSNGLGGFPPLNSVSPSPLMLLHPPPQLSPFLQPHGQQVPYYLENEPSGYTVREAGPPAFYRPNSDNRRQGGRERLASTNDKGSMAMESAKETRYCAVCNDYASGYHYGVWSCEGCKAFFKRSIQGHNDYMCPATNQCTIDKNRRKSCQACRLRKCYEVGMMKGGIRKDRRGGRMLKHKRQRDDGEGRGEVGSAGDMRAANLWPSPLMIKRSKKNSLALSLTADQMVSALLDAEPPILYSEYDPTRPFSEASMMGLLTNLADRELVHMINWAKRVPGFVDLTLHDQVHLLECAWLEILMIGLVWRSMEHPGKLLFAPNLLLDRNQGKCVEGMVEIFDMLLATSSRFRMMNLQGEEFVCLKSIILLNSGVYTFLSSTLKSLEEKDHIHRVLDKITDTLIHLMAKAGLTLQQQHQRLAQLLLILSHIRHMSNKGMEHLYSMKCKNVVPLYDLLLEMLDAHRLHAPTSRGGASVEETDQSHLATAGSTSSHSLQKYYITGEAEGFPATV", "test": "Induction of ERalpha protein degradation in human MCF7 cells assessed as reduction in ERalpha protein levels incubated for 24 hrs by In-cell western assay", "format": "cell-based", "conditions": "for DC50: mcf7, read-out: IC50 (the source's name)"}, "[1]": {"biological_target": "T2, Estrogen receptor (Homo sapiens) (UniProt P03372)", "T2 sequence (whole entry)": "T1 sequence (P03372 whole entry)", "test": "Displacement of [3H]estradiol from full length human ERalpha by competitive radiometric binding assay relative to estradiol"}, "MCF7": {"system": "MCF7", "test": "Antiproliferative activity against human MCF7 cells assessed as reduction in cell viability incubated for 6 days by WST1 dye based assay", "format": "functional", "conditions": "MCF7, 144 h"}}, "note": "pIC50: −log10 of the molar value."}
{"smiles": "O=C(NCCCOc1ccc(C(=C2C3CC4CC(C3)CC2C4)c2ccc(O)cc2)cc1)C12CC3CC(CC(C3)C1)C2", "values": [{"measurement": "DC50", "setting": "Estrogen receptor", "value": 3, "unit": "nM"}]}
{"smiles": "O=C(NCCCCOc1ccc(C(=C2C3CC4CC(C3)CC2C4)c2ccc(O)cc2)cc1)C12CC3CC(CC1C3)C2", "values": [{"measurement": "pIC50", "setting": "Estrogen receptor", "value": 8.70}]}
{"smiles": "O=C(NCCCCOc1ccc(C(=C2C3CC4CC(C3)CC2C4)c2ccc(O)cc2)cc1)C1CCCCC1", "values": [{"measurement": "DC50", "setting": "Estrogen receptor", "value": 0.4, "unit": "nM"}]}
{"smiles": "O=C(NCCCCOc1ccc(C(=C2C3CC4CC(C3)CC2C4)c2ccc(O)cc2)cc1)[C@H]1C[C@@H]2C=C[C@H]1C2", "values": [{"measurement": "RBA", "setting": "[1]", "value": 37, "unit": "%"}, {"measurement": "pIC50", "setting": "MCF7", "value": 8.05}]}
